Measurements published in patent US8252588B2, “Stem cells having increased sensitivity to SDF-1 and methods of generating and using same” (Yeda Research and Development Co. Ltd., priority 2003, dated 2012).

Experiments:
human CD34+ cells [1] = experiment: Four hour homing of CD34+ cells to the liver of non-irradiated mice, local hepatic injection of human SDF-1; type: in vivo; settings: non-irradiated NOD/SCID, human SDF-1 injected into hepatic parenchyma, IV infusion of cells
Protocol: FIG. 1a is a histogram showing inhibition of homing of human CB or MPB enriched CD34^+ cells to the murine BM, spleen and liver by neutralizing CXCR4 antibodies. Data presents inhibition as percentage of control. P≦0.008, comparing anti CXCR4 treated samples to control counterparts. […] Human SDF-1 was injected to the liver parenchyma as indicated. Cells were collected from the injected lobe to determine the homing of human CD34^+ cells.
Mice—NOD/SCID mice were bred and housed as previously described [Kollet (2001) Blood 97:3283-3291]. All experiments were approved by the animal care committee of the Weizmann Institute. Mice were sublethally irradiated (i.e., 375 cGy) as indicated, 24 hours prior to transplantation. Non-irradiated mice were used when local hepatic injection of SDF-1 was effected.
CXCR4 neutralization—Human CD34^+ cells were pre-incubated with anti human CXCR4 neutralizing mAb (10 μg/0.5×10^6 cells, 12G5, R&D) and were injected (0.5-0.6×10^6 CD34^+ cells per mouse) into the tail vein without washing. Mice were killed 4 hours, 16 hours, or 5-6 weeks following cell transplantation as indicated. Single cell suspensions of liver tissues were washed thoroughly with PBS. Homing of human cells was determined as described [Kollet (2001) Blood 97:3283-3291], acquiring 1.5×10^6 cells/sample.

human CD34+ cells [2] = experiment: Four hour homing of human CD34+ cells to the CCl4-injured liver of NOD/SCID mice; type: in vivo; settings: non-irradiated NOD/SCID mice, 15 μl CCl4 24 hours prior, four hour assay
Protocol: (§1) Liver injury—Mice were injected intraperitoneally (IP) with 10, 15 or 30 μl/mouse of CCl4 and liver samples were collected within a few hours, or 1-2 days following injection, as indicated. In homing assays, mice were intraveneously (IV) transplanted with human MPB CD34^+ cells (0.6×10^6 cells/mouse) 4 hours prior to liver collection. Homing was blocked by preincubation of transplanted cells with 10 μg of anti CXCR4/mouse or by IP injection of 100 μg/mouse of a specific MMP2/9 inhibitor III (CalBiochem, catalogue #444251). Human progenitors in the blood circulation of engrafted mice transplanted a month before with human CB MNC (20×10^6 cells/mouse) were quantified by seeding 2×10^5 mononuclear cells/ml in colony forming unit assay as described [Kollet (2001) Blood 97:3283-3291]. CXCR4 expression was determined by flow cytometry.

[3] = tested on: human colony forming progenitors; experiment: Human progenitors in blood circulation of engrafted mice, colony forming unit assay; type: in vivo; settings: engrafted NOD/SCID mice, one day after single injection of 10 μl CCl4
Protocol: Data summarize three independent experiments.
as §1

CXCR4 [4] = experiment: Human CXCR4 staining of peripheral blood MNC of chimeric mice, flow cytometry; type: in vivo; settings: CCl4 treated chimeric mice
Protocol: as §1

MMP-2/9 = experiment: Zymography assay of MMP-2/9 activity in liver of CCl4 injected mice; type: in vivo; settings: CCl4 treated NOD/SCID mice
CXCR4 [5] = experiment: Surface CXCR4 expression on CD34+ cells by FACS; type: cell-based, human; settings: CB CD34+ cells, 5 hours incubation
Protocol: CB CD34^+ cells were incubated for 5 hours with RPMI growth medium and HT1080 conditioned medium. Cells were stained with isotype control antibody as a negative control (Isot), or with CXCR4 antibody. Representative data of 3 experiments is shown.
Human cells—Cord blood (CB) cells and adult mobilized peripheral blood (MPB) cells were obtained after informed consent in accordance with procedures approved by the human ethics committee of the Weizmann Institute. CD34^+ cell enrichment was effected using magnetic bead separation as previously described [Kollet (2001) Blood 97:3283-3291]. CXCR4 expression was determined by flow cytometry using purified anti human CXCR4 (clone 12G5, R&D, Minneapolis, Minn.) and secondary F(ab′)2 fragment of goat anti mouse IgG FITC (Jackson, West Grove, Pa.).

Molecule: SDF-1: chemokine stromal derived factor, ligand of CXCR4
- homing of CD34+ progenitors to the liver (human CD34+ cells [1]): increased the homing

Molecule: ClC(Cl)(Cl)Cl [CCl4, Carbon tetrachloride]
- homing of human CD34+ cells to the injured liver (human CD34+ cells [2]): rapidly induced homing
- recruitment of human colony forming progenitors from bone marrow to the circulation [3]: induced the recruitment
- CXCR4 expression on human MNC cells in the circulation (CXCR4 [4]): increased level of CXCR4 expression
- MMP-9 expression in the liver (MMP-2/9): emergence of MMP-9 expression
- activity of MMP-2 in the liver (MMP-2/9): increased activity

B1: purified MMP-2: purified recombinant MMP-2 (protein, UniProt P08253 110-660, looked up)
72 kDa type IV collagenase: YNFFPRKPKWDKNQITYRIIGYTPDLDPETVDDAFARAFQVWSDVTPLRFSRIHDGEADIMINFGRWEHGDGYPFDGKDGLLAHAFAPGTGVGGDSHFDDDELWTLGEGQVVRVKYGNADGEYCKFPFLFNGKEYNSCTDTGRSDGFLWCSTTYNFEKDGKYGFCPHEALFTMGGNAEGQPCKFPFRFQGTSYDSCTTEGRTDGYRWCGTTEDYDRDKKYGFCPETAMSTVGGNSEGAPCVFPFTFLGNKYESCTSAGRSDGKMWCATTANYDDDRKWGFCPDQGYSLFLVAAHEFGHAMGLEHSQDPGALMAPIYTYTKNFRLSQDDIKGIQELYGASPDIDLGTGPTPTLGPVTPEICKQDIVFDGIAQIRGEIFFFKDRFIWRTVTPRDKPMGPLLVATFWPELPEKIDAVYEAPQEEKAVFFAGNEYWIYSASTLERGYPKPLTSLGLPPDVQRVDAAFNWSKNKKTYIFAGDKFWRYNEVKKKMDPGFPKLIADAWNAIPDNLDAVVDLQGGGHSYFFKGAYYLKLENQSLKSVKFGSIKSDWLGC
- surface CXCR4 expression on enriched human CD34+ cells (CXCR4 [5]): upregulation of CXCR4
